Test results from patent US20220356163A1, “SMALL MOLECULE INHIBITORS OF Id PROTEINS” (MEMORIAL SLOAN KETTERING CANCER CENTER, priority 2019, published 2022).
“Also recorded” adds a separate entry of the source.

Assays:
[1] = test system: new blood vessel formation; test: Matrigel plug anti-angiogenic assay; type: in vivo, mouse; conditions: in plugs 25 μg/mg or daily ip 30 or 100 mg/kg, 10 days
Protocol: VEGF-165 and FGF-2 treated Matrigel plugs will be implanted on Day 0 into C57BL/6 mice. Mice will be treated with either vehicle, AGX51, or a compound of the present technology (such as AGX-A). The AGX51 and a compound of the present technology will be provided either in the plugs (25 μg/mg) or by daily ip treatment (30 or 100 mg/kg) for 10 days. Plugs will be harvested on Day 10, fixed and paraffin embedded. Three sections ([…]) of each plug will be stained with an anti-CD31 antibody and counterstained with hematoxylin and eosin stain. CD31-positive microvessels will be counted for one entire cross-section per plug and the average micro-vessel density±SD vessels will be determined. Student's t-test will be used for statistical analysis.

ID1 [2] = target: T1, ID1 (Homo sapiens, UniProt P41134); test: Ubiquitylation assay in HCT116 and U87 cells; type: cell-based; conditions: 60 μM AGX51 two hours, then MG132 six hours
T1 sequence (P41134 1-155): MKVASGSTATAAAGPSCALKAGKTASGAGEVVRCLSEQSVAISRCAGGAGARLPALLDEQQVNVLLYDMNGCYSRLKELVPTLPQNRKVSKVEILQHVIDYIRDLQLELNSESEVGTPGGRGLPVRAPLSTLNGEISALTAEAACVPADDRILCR
Protocol: Ubiquitylation assay. HCT116 cells were transfected with pcDNA3-ID1-Flag and pcDNA3-HA-Ubiquitin using lipofectamine 3000 (ThermoFisher). 36 hours after transfection, cells were treated with 60 μM AGX51 for two hours followed by 20 μM MG132 (EMD Millipore) for an additional six hours. After washing with ice-cold PBS twice, cells were lysed in 100 μL of TBS (50 mM Tris-HCl, pH 8.0, 150 mM NaCl) containing 2% SDS and boiled at 100° C. for 10 minutes. Lysates were diluted with 900 μL of TBS containing 1% NP40 and EDTA free protease inhibitor cocktail (Roche) and were cleared by centrifuge at 15,000 rpm for 15 minutes at 4° C. Immunoprecipitation was performed using 1 mg of cellular lysates with FLAG M2 affinity gel (Sigma, F2426). Ubiquitinylated proteins were analyzed by immunoblot using indicated antibodies.
Id proteins are degraded by the ubiquitin 26S proteasome system. Lasorella et al., Nat Rev Cancer, 14: 77-91 (2014). To determine if this degradation pathway mediated the effects of AGX51 on Id protein levels was then explored. HUVECs are difficult to transfect with expression constructs, so HCT116 cells were utilized for this assay. HCT116 cells were transfected with a construct expressing Flag-ID1 and then treated with 60 μM AGX51 for 2-24 hours (FIG. 3B). […]

Id1 [3] = target: T2, Id1 (Mus musculus, UniProt P20067); test: Electrophoretic mobility shift assay (EMSA): ability of Id1 to antagonize E47 binding to DNA; type: biochemical; conditions: comparison between compounds
T2 construct: in the presence or absence of purified full-length Id1; made in house; host or cells: bacteria (Id1: Rosetta 2 (DE3))
T2 sequence (P20067 1-148 isoform P20067-2): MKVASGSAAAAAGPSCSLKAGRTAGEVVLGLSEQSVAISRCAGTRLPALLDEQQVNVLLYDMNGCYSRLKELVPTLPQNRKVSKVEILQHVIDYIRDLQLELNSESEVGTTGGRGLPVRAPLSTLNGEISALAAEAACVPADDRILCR
Protocol: Electrophoretic mobility shift assays. To test the activity of compounds identified in the in silico screen, full-length E47 was purified from bacteria and mixed with a P^32 labeled E-box sequence derived from the muscle creatine kinase (MCK) enhancer, BSA, DTT, poly dI-dC, salmon sperm, and HeLa nuclear extract, in the presence or absence of purified full-length Id1. Increasing concentrations of the various test compounds dissolved in DMSO or DMSO alone were added to the reaction mixes for 30 minutes, resolved on a 5% non-denaturing polyacrylamide gel, and autoradiographed. Electrophoretic mobility shift assays (EMSAs) were carried out on whole cell lysates from AGX51-treated cells and the EMSA was performed as described previously (Tournay and Benezra, Mol Cell Biol, 16: 2418-30 (1996)).
Pesce and Benezra, Mol. Cell. Biol., 13, 7874-7880 (1993). An in silico screen of 2,234,000 compounds for crevice binding was performed, yielding 3,000 hits that were pared for drug-like properties. 364 candidates emerged and were tested for their capacity to inhibit the ability of Id1 to antagonize E47 binding to DNA by EMSAs as previously described (Benezra, 1994). […] This anti-Id1 activity was most likely due to the perturbation of the Id1-E47 interaction but other explanations, such as the binding of an Id1-E47 complex to DNA in the presence of compound, are possible. […]

ID1, ID2, ID3 and ID4 = test: Western blot for ID1-ID4 in HCT116 cells; type: cell-based; conditions: 40 μM, 0-48 hours
Protocol: (§1) Immunoblotting. For immunoblotting, cells were collected by trypsinization, washed with PBS and lysed in homogenization buffer (0.3 M sucrose, 10 mM Tris (pH 8.0), 400 mM sodium chloride, 3 mM magnesium chloride, 0.5% NP40/IGEPAL, 100 μg/mL Aprotinin+Protease inhibitor cocktail (Roche #11 836 153 001). Proteins were separated by SDS-PAGE, transferred to a membrane (LI-COR), probed with primary antibodies overnight at 4° C., and probed with secondary antibodies (LI-COR) for 1-2 hours at room temperature. Proteins were visualized using the LI-COR Odyssey Infrared Imaging detection system. The following primary antibodies were used Id1, Id2, Id3, Id4 (195-14, 9-2-8, 17-3, 82-12, respectively, all from Biocheck), Cyclin D1 (2978, Cell Signaling), Actin (A2066, Sigma), Tubulin (T4026, Sigma). Western blot quantification was carried out using channel 700 and channel 800 intensity data from Odyssey application software version 3.0.30 (LI-COR), subtracting blank values and normalizing to Tubulin.
The activity of AGX51 was tested on primary human umbilical vein endothelial cells (HUVECs) and the HCT116 colorectal cancer cell line, two cell types with different ID1-4 expression profiles. […] The effects of AGX51 on ID3 loss in HUVECs was diminished in the 20-40 μM range compared with ID1, consistent with the weaker perturbation observed in the CD spectra.

Id proteins = test: Western blot for Id1 in HCT116 and 4T1 cells (FIGS. 7C-7D); type: cell-based; conditions: 24 hours
Protocol: The IC50 is indicated. […] The IC50 is indicated. […] Laser-induced choroidal neovascularization (NV) was induced in mice and they were treated by intravitreal injection with DMSO, 1 or 5 μg AGX-A, or 1 or 5 μg AGX51. On day 14 the animals were euthanized and area of CNV was measured (** indicates p<0.01, *** indicates p<0.0001 by ANOVA, error bars show SEM).
as §1

CCC(=O)N(CCC(c1ccc2c(c1)OCO2)c1ccccc1OC)Cc1ccccc1 (racemic) [AGX51, N-(3-(benzo[d][1,3]dioxol-5-yl)-3-(2-methoxyphenyl)propyl)-N-benzylpropionamide]
new blood vessel formation in Matrigel plugs [1]: significant protection from new blood vessel formation | ID1 polyubiquitylation (ID1 [2]): further increased ID1 polyubiquitylation | relative potency in EMSA (Id1 [3]): more potent than B | ID protein levels (ID1, ID2, ID3 and ID4): reduced levels of ID1, 1D2, ID3 and ID4

COc1ccccc1C(CCNCc1ccccc1)c1ccc(OC(C)C)cc1 (centres unmarked) [AGX-A, N-benzyl-3-(4-isopropoxyphenyl)-3-(2-methoxyphenyl)propan-1-anine]
Id protein levels in cells, concentration needed relative to AGX51 (Id proteins): reduced Id protein levels at lower concentrations than AGX51; also recorded: degraded Id proteins in cells at lower concentrations than AGX51
